Structures are written as SMILES.

The target in one assay is T1, EGFR (Homo sapiens, UniProt P00533).
T1 construct: endogenous in cells; host or cells: A431 (human epidermoid carcinoma)
As to the kind of experiment: EGFR Activation-Inhibiting Test (DELFIA, EGF-stimulated A431 cells). Format: cell-based. The following applies: 60 min compound, EGF stimulation 45 min, read-out: IC50 (inhibition of EGF-stimulated EGFR activation). The procedure:
Cell seeding and starving: A431 (human epidermoid carcinoma) cells diluted in 10% […] containing DMEM are seeded at 1.3×10^4 cells/well in 96-well plates and incubated overnight. Then the cell culture medium is replaced with 90 μL/well serum-free DMEM medium. The plates are incubated overnight for starvation.
Compound dilution and treatment: the test compounds are diluted in a 3-fold series in FBS-free medium containing 5% DMSO. 10 μL/well of the diluted compound is added into cells, 10 μL/well of 5% DMSO without test compound is added into the control wells. Duplication study is performed for each test point. Then, the plates are incubated at 37° C. for 60 minutes in a 5% CO2 incubator. 10 μL/well of 200 ng/mL EGF (Biosource, PHG0064) is added and incubate the plates at 37° C. for 45 minutes in the 5% CO2 incubator.
Lysate preparation: the medium is removed, and 100 μL/well of 50 mM Tris-Cl, pH 8.0 cell lysis buffer (containing 0.5 M NaCl, 0.2 mM EDTA, 0.1% Triton X-100, 1 μg/mL aprotinin, 0.75 μg/mL leupeptin, 1 μg/mL pepstatin, 1 mM DTT, 500 μM sodium vanadate, and 1 mM PMSF) is added into each well to lyse cells. The protease inhibitors are added right before use. The cell lysate is frozen at −80° C. overnight.
Plate coating and blocking: 100 μL/well of 0.5 μg/ml anti-EGFR antibody (Perkin Elmer, AF231) diluted in PBS is added to a 96-well DELFIA plate (Perkin Elmer, AAAND-0001) and incubated at 25° C. overnight with gentle shaking. The solution is discarded. The plate is washed 3 times with 200 μL/well of DELFIA wash buffer (PBS buffer containing 0.05% Tween-20). 200 μL/well of blocking buffer (PBS containing 0.137 M of NaCl, 0.0027 M of KCl, 0.01 M of Na2PO4.12H2O, 0.0015 M of KH2PO4, pH7.4, and 1% BSA) is added into each well and the plate is incubated at 25° C. for 2 h with gentle shaking.
Binding: the blocking buffer is discarded and the plate is washed with 200 μL/well of DELFIA wash buffer 3 times. 80 μL/well of the sample diluent (20 mM Tris-Cl/pH7.3, 150 mM NaCl, 0.1% of BSA, and 0.05% Tween-20) and 20 μL/well of cell lysate are then added to each well. Incubate the plate at 25° C. for additional 1 h with gentle shaking.
Detection: The plate is washed again with 200 μL/well of DELFIA wash buffer for 3 times. 100 μL/well of […] Eu-PT66 antibody (Perkin Elmer, AD0040) diluted in DELFIA assay buffer (Perkin Elmer, 1244-106) is added and incubate the plate at 25° C. for 1 h with gentle shaking. After washing with 200 μL/well of DELFIA wash buffer 3 times, 100 μL/well of DELFIA enhancement buffer (Perkin Elmer, 4001-0010) is added. Incubate the plate at 25° C. for 30 min with gentle shaking.
Readout: fluorescence signal is measured at 340 nm excitation and 620 nm emission on Victor^3 (PerkinElmer).
Inhibition rates are calculated as follow:
[Fluorescence Readout]Treated is the readout of the wells treated with test compound upon EGF stimulation
[Fluorescence Readout]Untreated is the readout of the wells with neither compound treatment nor EGF stimulation, which is used as cell background signal
[Fluorescence Readout]EGF is the readout of wells with EGF stimulation, but no compound treatment, which is used as maximal signal
IC50 is calculated using XL-Fit 2.0 software.

In assay [1] the test system is HCC827 (human non small cell lung cancer, NSCLC) xenograft. In words: In vivo anti-tumor test, HCC827 subcutaneous xenograft. The following applies: HCC827 xenograft in nude mice. On the procedure:
(§1) Human tumor cell lines: Fadu (human head and neck, pharynx carcinoma, HTB-43), HCC827 (human non small cell lung cancer, NSCLC; CRL-2868), A431 (human epidermoid carcinoma, CRL-2592) cell lines were purchased from ATCC; Fadu, HCC827 and A431 cells were grown in EMEM, RPMI 1640 and DMEM medium plus 10% FBS respectively. These cells were incubated in a humidifier incubator at 37° C. and under 5% CO2.
(§2) Animals: Athymic mice (6-8 weeks) were purchased from Shanghai SLAC laboratory animal CO. LTD. The animals were housed in the SPF environment, 4 animals/cage under standard conditions (12:12 h light/dark, 40-50% relative humidity at 20-25° C.) and were given free access to Co^60 radiated-sterile diet and sterile water.
(§3) Agents: Test compounds were formulated in sterile 0.5% CMC-Na at different concentrations (0.05˜1.0 mg/mL), and then stored at 4° C.
(§4) Subcutaneous implantation of tumor cells and anti-tumor efficacy study: The tumor cells were incubated at 37° C. in a 5% CO2 incubator until they reached approximately 80% confluence. Cells were detached by 0.05% Trypsin-EDTA, centrifuged at 800 rpm, and the cells were suspended in serum free medium. The concentration was adjusted for nude mice implantation. The nude mice were quarantined for several days before implantation, and 3×10^6 FaDu or A431 cells in 0.1 mL medium, or 5×10^6 HCC827 cells in the 0.2 mL medium were subcutaneously injected to the right lateral flank of nude mice.
One to three weeks after inoculation, when average tumor volume reached 100-300 mm^3, the animals were randomized and divided into vehicle and compound treated groups. The mice were orally administrated with either the vehicle, 0.5% CMC-Na, or the test compounds at different dose levels once a day. Tumor volume was measured 2-3 times per week by caliper for length and width, and was calculated using the formula: Tumor volume (TV, mm^3)=width^2×length/2. Animal body weight and behavior were observed during the experiment. Tumor growth inhibition was calculated as follows: TGI (%)=100−(T−T0)/(C−C0)×100%, where T represents mean tumor volume of a treated group on a specific day during the experiment, T0 represents mean tumor volume of the same treated group on the first day of treatment, C represents mean tumor volume of a control group on the specific day during the experiment, and C0 represents mean tumor volume of the same control group on the first day of treatment.
Tumor volume data were expressed as Mean±SD. One-way ANOVA was used for multiple comparisons and Student's t-test was used for comparison with vehicle control. Differences were considered statistically significant at P<0.05.

The subject of assay [2] is Fadu (human head and neck, pharynx carcinoma) xenograft. In words: In vivo anti-tumor test, FaDu subcutaneous xenograft. The following applies: FaDu xenograft in nude mice. The procedure: as §1, §2, §3, §4
(§5) One to three weeks after inoculation, when average tumor volume reached 100-300 mm^3, the animals were randomized and divided into vehicle and compound treated groups. The mice were orally administrated with either the vehicle, 0.5% CMC-Na, or the test compounds at different dose levels once a day. Tumor volume was measured 2-3 times per week by caliper for length and width, and was calculated using the formula: Tumor volume (TV, mm^3)=width^2×length/2. Animal body weight and behavior were observed during the experiment. […]
(§6) Tumor volume data were expressed as Mean±SD. […]

For assay [3], the system named is A431 (human epidermoid carcinoma) xenograft. As to the kind of experiment: In vivo anti-tumor test, A431 subcutaneous xenograft. As to conditions: A431 xenograft in nude mice. The procedure:
as §1, §2, §3, §4, §5, §6

Another assay addresses T2, hERG channels (Homo sapiens, UniProt Q12809).
T2 construct: expressed in transfected cells; host or cells: CHO
In words: hERG assay, manual whole-cell patch clamp. It counts as cell-based. The following applies: CHO cells expressing hERG, five concentrations, read-out: IC50 for inhibition of hERG tail currents. The procedure: A CHO cell line stably transfected with hERG cDNA and expressing hERG channels was used for the study. Cells were cultured in medium containing:
For the electrophysiological recordings the following solutions were used
Whole-cell recordings were performed using a EPC10 USB(HEKA). The cells were voltage clamped at a holding potential of −80 mV. The hERG current was activated by depolarizing at +20 mV for 2 sec, after which the current was taken back to −50 mV for 2 sec to remove the inactivation and observe the deactivating tail current. The first step at −50 mV was used as a baseline for measuring the tail current peak amplitude.
Compounds were prepared as a 10 mM DMSO stock in a glass vial. The stock solution was mixed vigorously for 10 minute at room temperature. For testing, the compound was diluted in a glass vial using solution; the dilution was prepared no longer than 30 minutes before use. Equal amounts of DMSO (0.1%) were present at final dilution.
After achieving whole-cell configuration, the cells were monitored for 90 sec to assess stability and washed with external solution for 66 sec. The voltage protocol described above was then applied to the cells every 20 sec throughout the whole procedure. Only stable cells with recording parameters above threshold were allowed to enter the drug addition procedure. […]
Data were analyzed using Pulsefit and Origin 7 (Originlab Corporation).
A general note: hERG is a cardiac potassium channel; its block is linked to QT prolongation.

T1 sequence (P00533 25-1210): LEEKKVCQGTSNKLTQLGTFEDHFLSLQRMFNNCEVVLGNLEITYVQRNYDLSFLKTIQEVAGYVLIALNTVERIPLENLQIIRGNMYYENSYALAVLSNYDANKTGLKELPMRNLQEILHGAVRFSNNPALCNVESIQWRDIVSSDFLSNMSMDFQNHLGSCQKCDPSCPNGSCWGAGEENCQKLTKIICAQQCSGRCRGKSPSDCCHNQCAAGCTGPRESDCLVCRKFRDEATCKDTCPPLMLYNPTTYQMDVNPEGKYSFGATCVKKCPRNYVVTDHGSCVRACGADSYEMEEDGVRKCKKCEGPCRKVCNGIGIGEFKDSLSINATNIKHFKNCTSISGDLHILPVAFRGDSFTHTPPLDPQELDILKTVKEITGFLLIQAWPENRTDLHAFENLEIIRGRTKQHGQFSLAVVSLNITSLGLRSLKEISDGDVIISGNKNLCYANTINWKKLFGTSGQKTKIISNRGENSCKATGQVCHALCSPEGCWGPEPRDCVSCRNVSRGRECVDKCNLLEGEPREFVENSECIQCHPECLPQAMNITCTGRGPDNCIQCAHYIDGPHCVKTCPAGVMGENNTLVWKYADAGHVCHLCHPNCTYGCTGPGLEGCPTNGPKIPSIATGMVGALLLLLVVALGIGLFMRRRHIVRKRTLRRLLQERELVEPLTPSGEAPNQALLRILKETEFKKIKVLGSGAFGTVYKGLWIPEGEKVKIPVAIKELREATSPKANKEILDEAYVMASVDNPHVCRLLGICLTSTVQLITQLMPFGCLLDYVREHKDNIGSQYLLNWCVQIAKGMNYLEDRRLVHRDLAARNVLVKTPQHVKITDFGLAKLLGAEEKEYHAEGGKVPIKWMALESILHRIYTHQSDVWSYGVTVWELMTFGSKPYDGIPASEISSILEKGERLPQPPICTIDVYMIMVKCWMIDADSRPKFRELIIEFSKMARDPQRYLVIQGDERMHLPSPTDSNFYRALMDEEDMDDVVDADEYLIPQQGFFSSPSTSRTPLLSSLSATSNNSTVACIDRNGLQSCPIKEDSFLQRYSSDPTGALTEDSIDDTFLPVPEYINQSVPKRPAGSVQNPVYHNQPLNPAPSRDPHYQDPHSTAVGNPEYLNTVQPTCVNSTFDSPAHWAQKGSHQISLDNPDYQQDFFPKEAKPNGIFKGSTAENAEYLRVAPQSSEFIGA
T2 sequence (Q12809 whole entry): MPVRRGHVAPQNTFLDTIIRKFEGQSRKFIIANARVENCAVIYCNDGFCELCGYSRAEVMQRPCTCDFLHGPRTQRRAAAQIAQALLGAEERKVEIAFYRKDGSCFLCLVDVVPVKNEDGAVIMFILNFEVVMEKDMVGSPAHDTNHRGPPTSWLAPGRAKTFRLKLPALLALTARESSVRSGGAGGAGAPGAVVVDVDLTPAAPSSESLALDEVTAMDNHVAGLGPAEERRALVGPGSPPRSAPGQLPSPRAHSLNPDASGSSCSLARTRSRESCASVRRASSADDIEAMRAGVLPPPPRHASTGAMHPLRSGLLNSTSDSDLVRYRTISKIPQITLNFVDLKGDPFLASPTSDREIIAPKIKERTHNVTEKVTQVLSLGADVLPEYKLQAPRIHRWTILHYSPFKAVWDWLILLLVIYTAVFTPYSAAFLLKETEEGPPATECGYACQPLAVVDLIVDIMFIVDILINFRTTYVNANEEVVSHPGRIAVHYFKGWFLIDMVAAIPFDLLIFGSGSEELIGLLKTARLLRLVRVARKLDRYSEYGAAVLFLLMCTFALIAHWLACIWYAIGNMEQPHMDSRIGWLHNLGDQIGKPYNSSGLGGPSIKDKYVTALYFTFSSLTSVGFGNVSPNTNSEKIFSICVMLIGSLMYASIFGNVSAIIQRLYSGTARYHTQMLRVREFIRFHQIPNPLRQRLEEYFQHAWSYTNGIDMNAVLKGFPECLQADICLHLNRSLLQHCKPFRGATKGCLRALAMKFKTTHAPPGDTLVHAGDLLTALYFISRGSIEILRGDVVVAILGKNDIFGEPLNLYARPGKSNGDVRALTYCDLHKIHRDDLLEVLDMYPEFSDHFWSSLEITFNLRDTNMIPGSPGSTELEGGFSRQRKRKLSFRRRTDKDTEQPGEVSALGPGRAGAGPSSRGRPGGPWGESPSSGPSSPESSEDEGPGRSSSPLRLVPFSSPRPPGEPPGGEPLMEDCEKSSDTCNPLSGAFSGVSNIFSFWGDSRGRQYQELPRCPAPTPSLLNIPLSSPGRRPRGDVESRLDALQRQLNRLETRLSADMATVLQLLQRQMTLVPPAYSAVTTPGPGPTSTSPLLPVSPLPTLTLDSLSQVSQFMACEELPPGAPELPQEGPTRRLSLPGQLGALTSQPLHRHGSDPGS

For `COc1cc2ncnc(Nc3ccc4c(cnn4Cc4cccc(F)c4)c3)c2cc1NC(=O)N1C[C@H]2CCN(C)[C@H]2C1` [Compound 1, (3aR,6aR)—N-(4-(1-(3-fluorobenzyl)-1H-indazol-5-ylamino)-7-methoxyquinazolin-6-yl)-1-methylhexahydropyrrolo[3,4-b]pyrrole-5(1H)-carboxamide], the IC50 on EGFR is 185 nM.

Take `COc1cc2ncnc(Nc3ccc4c(cnn4Cc4cccc(F)c4)c3)c2cc1NC(=O)N1C[C@@H]2CCN(C)[C@@H]2C1` [Compound 2, (3aS,6aS)—N-(4-(1-(3-fluorobenzyl)-1H-indazol-5-ylamino)-7-methoxyquinazolin-6-yl)-1-methylhexahydropyrrolo[3,4-b]pyrrole-5(1H)-carboxamide]: the IC50 at EGFR worked out at 439 nM.

On to `C#Cc1cccc(Nc2ncnc3cc(OC)c(NC(=O)N4C[C@H]5CCN(C)[C@H]5C4)cc23)c1` [Compound 3, (3aR,6aR)—N-(4-(3-ethynylphenylamino)-7-methoxyquinazolin-6-yl)-1-methyl-hexahydropyrrolo[3,4-b]pyrrole-5(1H)-carboxamide], for which the figures for the 50% inhibitory concentration (IC50) on EGFR and on hERG channels were 6 nM and 9.3 ± 1.2 µM, respectively. Further, the TGI % in assay [1] (0.5 mpk p.o. qd x 21 days) is given as 59.2%; in assay [1] (1 mpk p.o. qd x 21 days) it was 114.7%; in assay [1] (2 mpk p.o. qd x 21 days) it was 127.8%; in assay [1] (5 mpk p.o. qd x 21 days), 140.8%; in assay [2] (2 mpk p.o. qd x 21 days), 46.1%; in assay [2] (5 mpk p.o. qd x 21 days), 66.9%. Also, the TGI % in assay [2] (10 mpk p.o. qd x 21 days) is given as 95.2%; in assay [3] (2 mpk p.o. qd x 21 days), 21.3%; in assay [3] (5 mpk p.o. qd x 21 days), 62.8%; in assay [3] (10 mpk p.o. qd x 21 days), 85.3%.

As to `COc1cc2ncnc(Nc3ccc(OCc4cccc(F)c4)c(Cl)c3)c2cc1NC(=O)N1C[C@@H]2CCN(C)[C@@H]2C1` [Compound 4, (3aS,6aS)—N-(4-(3-chloro-4-(3-fluorobenzyloxy)phenylamino)-7-methoxyquinazolin-6-yl)-1-methylhexahydropyrrolo[3,4-b]pyrrole-5(1H)-carboxamide], the IC50 on EGFR amounted to 16 nM.

Regarding `COc1cc2ncnc(Nc3ccc(OCc4cccc(F)c4)c(Cl)c3)c2cc1NC(=O)N1C[C@H]2CCN(C)[C@H]2C1` [Compound 5, (3aR,6aR)—N-(4-(3-chloro-4-(3-fluorobenzyloxy)phenylamino)-7-methoxyquinazolin-6-yl)-1-methylhexahydropyrrolo[3,4-b]pyrrole-5(1H)-carboxamide], the 50% inhibitory concentration (IC50) at EGFR was 44 nM.

As to `CN1CC[C@H]2CN(C(=O)Nc3ccc4ncnc(Nc5ccc(OCc6cccc(F)c6)c(Cl)c5)c4c3)C[C@H]21` [Compound 6, (3aS,6aS)—N-(4-(3-chloro-4-(3-fluorobenzyloxy)phenylamino)quinazolin-6-yl)-1-methylhexahydropyrrolo[3,4-b]pyrrole-5(1H)-carboxamide], the IC50 at EGFR turned out to be 210 nM.

In the case of `CN1CC[C@@H]2CN(C(=O)Nc3ccc4ncnc(Nc5ccc(OCc6cccc(F)c6)c(Cl)c5)c4c3)C[C@@H]21` [Compound 7], the IC50 at EGFR worked out at 241 nM.

As a reminder, the IC50 is the concentration at which inhibition is half-maximal.
